pIC50: −log10 of the molar value. Converted amounts (≈) assume the structure as drawn. “And” between values parts separate entries of the source, which are not always exact repeats. Identical values can stand only once. The source made the active and inactive calls. The rule behind the calls is not given here.
Tests used:
Coagulation factor X = Coagulation factor X (Homo sapiens, UniProt P00742); test: Inhibition of FXa (unknown origin) using Z-D-Arg-Gly-Arg-pNA.2HCl as substrate incubated for 30 mins followed by substrate addition and measured after 60 mins by microplate reader analysis
[1] = Selectivity index, ratio of IC50 for inhibition of FXa (unknown origin) using Z-D-Arg-Gly-Arg-pNA.2HCl as substrate to IC50 for inhibition of human FXIa using p-Glu-Pro-Arg-pNA.HCl as substrate
[2] = Selectivity index, ratio of IC50 for inhibition of tPA (unknown origin) using H-D-Ile-Pro-Arg-pNA-2HCl as substrate to IC50 for inhibition of human FXIa using p-Glu-Pro-Arg-pNA.HCl as substrate
[3] = Selectivity index, ratio of IC50 for inhibition of plasmin (unknown origin) using PyroGlu-Phe-Lys-pNA.HCl as substrate to IC50 for inhibition of human FXIa using p-Glu-Pro-Arg-pNA.HCl as substrate
Plasma [4] = test: Anticoagulant activity in citrated human plasma assessed as prolongation of activated partial thromboplastin time at 1 uM incubated for 3 mins by aPTT reagent based automated coagulometric analysis relative to control; format: functional; settings: 0.05 h
[5] = Selectivity index, ratio of IC50 for inhibition of thrombin (unknown origin) using H-D-Phe-Pip-Arg-pNA.2HCl as substrate to IC50 for inhibition of human FXIa using p-Glu-Pro-Arg-pNA.HCl as substrate
[6] = Selectivity index, ratio of IC50 for inhibition of FXIIa (unknown origin) using H-D-ProPhe-Arg-pNA.2HCl as substrate to IC50 for inhibition of human FXIa using p-Glu-Pro-Arg-pNA.HCl as substrate
Trypsin = Trypsin (Homo sapiens, UniProt P07477+P07478+P35030); test: Inhibition of trypsin (unknown origin) using Bz-Ile-Glu(gamma-OR)-Gly-Arg-pNA.HCl as substrate incubated for 30 mins followed by substrate addition and measured after 60 mins by microplate reader analysis; format: protein assay
[7] = biological target: Tissue-type plasminogen activator (Homo sapiens, UniProt P00750); test: Inhibition of tPA (unknown origin) using H-D-Ile-Pro-Arg-pNA-2HCl as substrate incubated for 30 mins followed by substrate addition and measured after 60 mins by microplate reader analysis
Chymotrypsin = Chymotrypsin (Homo sapiens, UniProt Q99895+P17538+P40313+Q6GPI1); test: Inhibition of chymotrypsin (unknown origin) using N-Suc-Ala-Ala-Pro-Phe-pNA as substrate incubated for 30 mins followed by substrate addition and measured after 60 mins by microplate reader analysis; format: protein assay
[8] = Selectivity index, ratio of IC50 for inhibition of trypsin (unknown origin) using Bz-Ile-Glu(gamma-OR)-Gly-Arg-pNA.HCl as substrate to IC50 for inhibition of human FXIa using p-Glu-Pro-Arg-pNA.HCl as substrate
physchem = settings: aqueous medium, pH 7.4
Description: Aqueous solubility of the compound in DMSO at pH 7.4 incubated for 12 hrs by turbidimetric based UV spectrophotometric analysis

Plasma kallikrein = Plasma kallikrein (Homo sapiens, UniProt P03952); test: Inhibition of PKal (unknown origin) using H-D-Pro-Phe-Arg-pNA.2HCl as substrate incubated for 30 mins followed by substrate addition and measured after 60 mins by microplate reader analysis
Plasma [9] = test: Anticoagulant activity in citrated human plasma assessed as prolongation of activated partial thromboplastin time incubated for 3 mins by aPTT reagent based automated coagulometric analysis; format: functional; settings: for EC1.5: 0.05 h
Prothrombin = Prothrombin (Homo sapiens, UniProt P00734); test: Inhibition of thrombin (unknown origin) using H-D-Phe-Pip-Arg-pNA.2HCl as substrate incubated for 30 mins followed by substrate addition and measured after 60 mins by microplate reader analysis
[10] = Selectivity index, ratio of IC50 for inhibition of chymotrypsin (unknown origin) using N-Suc-Ala-Ala-Pro-Phe-pNA as substrate to IC50 for inhibition of human FXIa using p-Glu-Pro-Arg-pNA.HCl as substrate
Plasminogen = Plasminogen (Homo sapiens, UniProt P00747); test: Inhibition of plasmin (unknown origin) using PyroGlu-Phe-Lys-pNA.HCl as substrate incubated for 30 mins followed by substrate addition and measured after 60 mins by microplate reader analysis
Coagulation factor XII = biological target: T1, Coagulation factor XII (Homo sapiens, UniProt P00748); test: Inhibition of FXIIa (unknown origin) using H-D-ProPhe-Arg-pNA.2HCl as substrate incubated for 30 mins followed by substrate addition and measured after 60 mins by microplate reader analysis
T1 sequence (P00748 whole entry): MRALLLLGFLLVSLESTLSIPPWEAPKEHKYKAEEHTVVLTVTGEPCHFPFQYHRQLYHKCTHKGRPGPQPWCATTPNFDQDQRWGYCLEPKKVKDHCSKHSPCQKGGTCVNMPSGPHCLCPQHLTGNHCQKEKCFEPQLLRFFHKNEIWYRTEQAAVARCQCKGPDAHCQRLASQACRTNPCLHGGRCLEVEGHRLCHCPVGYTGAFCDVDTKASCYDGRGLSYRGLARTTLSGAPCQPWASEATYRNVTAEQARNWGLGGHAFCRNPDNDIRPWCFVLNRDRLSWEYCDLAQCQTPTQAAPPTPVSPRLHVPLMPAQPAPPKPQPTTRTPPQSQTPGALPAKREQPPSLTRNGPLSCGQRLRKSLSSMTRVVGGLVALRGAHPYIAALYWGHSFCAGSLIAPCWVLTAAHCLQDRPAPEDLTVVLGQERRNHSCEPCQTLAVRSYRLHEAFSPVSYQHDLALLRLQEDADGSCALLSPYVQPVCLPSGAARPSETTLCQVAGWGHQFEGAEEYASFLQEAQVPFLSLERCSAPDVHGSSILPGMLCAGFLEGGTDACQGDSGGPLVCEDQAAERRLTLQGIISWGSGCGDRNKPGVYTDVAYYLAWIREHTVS

Plasma [11] = test: Anticoagulant activity in citrated human plasma assessed as prolongation of prothrombin time incubated for 3 mins by PT reagent based automated coagulometric analysis; format: functional, cell-free
Coagulation factor XI = Coagulation factor XI (Homo sapiens, UniProt P03951); test: Inhibition of human FXIa using p-Glu-Pro-Arg-pNA.HCl as substrate incubated for 30 mins followed by substrate addition and measured after 60 mins by microplate reader analysis
HK-2 [12] = test: Cytotoxicity against human HK-2 cells assessed as reduction in cell viability at 10 to 50 uM incubated for 24 hrs by MTT assay; format: toxicity, cell-based; settings: hk-2, 24 h, dose 10-50 µM
[13] = Plasma protein binding in human; format: ADME, cell-free; settings: read-out: PPB (converted)
Plasma [14] = test: Anticoagulant activity in mouse plasma assessed as prolongation of activated partial thromboplastin time incubated for 3 mins by aPTT reagent based automated coagulometric analysis; format: functional; settings: 0.05 h
Mus musculus [15] = test: Antithrombotic activity in FeCl3-induced carotid arterial thrombosis C57BL/6J mouse model assessed as increase in blood flow velocity at 10 mg/kg, po measured after 0.5 to 4 hrs; format: functional, organism-based; settings: time 0.5-4 hrs
Mus musculus [16] = test: Antithrombotic activity in FeCl3-induced carotid arterial thrombosis C57BL/6J mouse model assessed as increase in peak velocity at 10 mg/kg, po measured after 0.5 to 4 hrs; format: functional, organism-based; settings: time 0.5-4 hrs
HK-2 [17] = test: Cytotoxicity against human HK-2 cells assessed as reduction in cell viability at 50 uM incubated for 24 hrs by MTT assay; format: toxicity, cell-based; settings: hk-2, 24 h
[18] = Metabolic stability in human liver microsome assessed as half life; format: ADME; settings: liver microsomes
[19] = Apparent permeability in MDCK-MDR1 cells; format: ADME, cell-based, Canis lupus familiaris; settings: dog
HepG2 = test: Cytotoxicity against human HepG2 cells assessed as reduction in cell viability at 1 to 50 uM incubated for 24 hrs by MTT assay; format: toxicity, cell-based; settings: hepg2, 24 h, dose 1-50 µM
[20] = Cytotoxicity against human AC16 [Human hybrid] cells assessed as reduction in cell viability at 1 to 50 uM incubated for 24 hrs by MTT assay; format: toxicity, cell-based; settings: dose 1-50 µM
HK-2 [21] = test: Cytotoxicity against human HK-2 cells assessed as reduction in cell viability at 1 to 50 uM incubated for 24 hrs by MTT assay; format: toxicity, cell-based; settings: hk-2, 24 h, dose 1-50 µM
[22] = Toxicity in C57BL/6J mouse assessed as prolongation of bleeding time at 30 mg/kg, IG measured after 30 mins by tail bleeding assay; format: organism-based; settings: in vivo, po, 0.5 h
[23] = Toxicity in male New Zealand white rabbit assessed as prolongation of bleeding time at 2 mg/kg, iv by ear bleeding assay; format: organism-based, Oryctolagus cuniculus; settings: in vivo
[24] = Toxicity in C57BL/6J mouse assessed as prolongation of bleeding time at 10 mg/kg, IG measured after 30 mins by tail bleeding assay; format: organism-based; settings: in vivo, po, 0.5 h

Chain of Coagulation factor X (P00742 41-179 limits assumed): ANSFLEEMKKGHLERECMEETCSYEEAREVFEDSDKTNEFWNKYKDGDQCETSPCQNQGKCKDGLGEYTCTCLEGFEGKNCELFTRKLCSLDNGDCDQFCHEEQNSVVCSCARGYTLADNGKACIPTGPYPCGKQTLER
Chain of Coagulation factor X (P00742 235-488 limits assumed): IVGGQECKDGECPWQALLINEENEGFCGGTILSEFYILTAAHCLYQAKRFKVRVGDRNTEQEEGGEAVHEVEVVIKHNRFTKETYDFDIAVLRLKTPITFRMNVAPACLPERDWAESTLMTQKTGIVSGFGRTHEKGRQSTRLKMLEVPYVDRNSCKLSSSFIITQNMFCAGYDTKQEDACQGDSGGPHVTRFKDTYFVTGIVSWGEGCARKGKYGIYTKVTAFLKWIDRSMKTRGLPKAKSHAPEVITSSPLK
Chain of Tissue-type plasminogen activator (P00750 whole entry): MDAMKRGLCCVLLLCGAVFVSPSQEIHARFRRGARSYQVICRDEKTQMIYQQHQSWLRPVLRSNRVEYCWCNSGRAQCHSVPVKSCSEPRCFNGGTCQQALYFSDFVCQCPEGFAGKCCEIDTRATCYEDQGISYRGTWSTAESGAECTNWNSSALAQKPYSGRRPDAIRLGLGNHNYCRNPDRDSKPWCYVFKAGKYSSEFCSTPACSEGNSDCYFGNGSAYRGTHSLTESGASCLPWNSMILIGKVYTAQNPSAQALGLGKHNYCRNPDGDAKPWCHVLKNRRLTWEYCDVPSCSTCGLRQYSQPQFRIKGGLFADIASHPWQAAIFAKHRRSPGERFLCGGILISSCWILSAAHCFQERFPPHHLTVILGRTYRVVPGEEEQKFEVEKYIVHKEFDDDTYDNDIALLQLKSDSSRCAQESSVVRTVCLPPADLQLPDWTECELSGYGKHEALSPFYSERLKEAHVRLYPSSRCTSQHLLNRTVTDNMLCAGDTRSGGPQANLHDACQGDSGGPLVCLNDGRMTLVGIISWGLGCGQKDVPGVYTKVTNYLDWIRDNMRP
Chain of Coagulation factor XI (P03951 19-387 limits assumed): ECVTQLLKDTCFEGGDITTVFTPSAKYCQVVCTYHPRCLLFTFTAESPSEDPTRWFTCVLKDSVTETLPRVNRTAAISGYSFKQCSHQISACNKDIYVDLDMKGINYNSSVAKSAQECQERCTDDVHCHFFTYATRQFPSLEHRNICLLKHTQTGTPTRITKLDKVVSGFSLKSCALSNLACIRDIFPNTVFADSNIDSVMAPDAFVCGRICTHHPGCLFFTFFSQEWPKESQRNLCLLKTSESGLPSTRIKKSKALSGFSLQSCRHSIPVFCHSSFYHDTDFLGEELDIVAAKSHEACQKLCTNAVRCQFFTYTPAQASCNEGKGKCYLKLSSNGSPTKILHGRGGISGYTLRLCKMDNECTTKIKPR
Chain of Coagulation factor XI (P03951 388-625 limits assumed): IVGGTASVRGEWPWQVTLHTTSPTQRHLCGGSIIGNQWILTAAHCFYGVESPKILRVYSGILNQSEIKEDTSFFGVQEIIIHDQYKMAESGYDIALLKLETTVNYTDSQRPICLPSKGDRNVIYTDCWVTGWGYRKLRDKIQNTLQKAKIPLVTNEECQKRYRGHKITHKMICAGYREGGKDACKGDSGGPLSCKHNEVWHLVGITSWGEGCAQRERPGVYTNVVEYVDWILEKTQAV
Chain of Plasminogen (P00747 97-580 limits assumed): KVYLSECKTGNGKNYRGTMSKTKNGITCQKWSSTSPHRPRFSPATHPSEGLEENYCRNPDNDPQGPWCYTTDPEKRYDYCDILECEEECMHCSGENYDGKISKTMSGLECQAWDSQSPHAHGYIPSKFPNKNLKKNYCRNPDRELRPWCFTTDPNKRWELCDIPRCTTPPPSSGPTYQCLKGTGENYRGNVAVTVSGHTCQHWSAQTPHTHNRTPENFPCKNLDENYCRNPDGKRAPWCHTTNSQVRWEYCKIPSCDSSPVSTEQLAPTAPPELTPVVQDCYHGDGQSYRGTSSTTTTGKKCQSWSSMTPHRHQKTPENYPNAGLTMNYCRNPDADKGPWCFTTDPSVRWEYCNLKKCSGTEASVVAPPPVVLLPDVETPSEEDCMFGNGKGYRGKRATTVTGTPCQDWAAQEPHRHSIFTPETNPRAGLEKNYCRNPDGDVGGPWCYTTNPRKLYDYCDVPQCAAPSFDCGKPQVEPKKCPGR
Chain of Plasminogen (P00747 581-810 limits assumed): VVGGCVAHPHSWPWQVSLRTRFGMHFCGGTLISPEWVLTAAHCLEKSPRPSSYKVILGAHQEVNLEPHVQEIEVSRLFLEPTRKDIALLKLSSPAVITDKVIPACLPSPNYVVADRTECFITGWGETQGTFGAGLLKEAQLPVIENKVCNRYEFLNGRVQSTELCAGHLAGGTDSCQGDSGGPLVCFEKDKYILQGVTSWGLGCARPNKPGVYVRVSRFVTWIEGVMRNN
Chain of Plasma kallikrein (P03952 20-390 limits assumed): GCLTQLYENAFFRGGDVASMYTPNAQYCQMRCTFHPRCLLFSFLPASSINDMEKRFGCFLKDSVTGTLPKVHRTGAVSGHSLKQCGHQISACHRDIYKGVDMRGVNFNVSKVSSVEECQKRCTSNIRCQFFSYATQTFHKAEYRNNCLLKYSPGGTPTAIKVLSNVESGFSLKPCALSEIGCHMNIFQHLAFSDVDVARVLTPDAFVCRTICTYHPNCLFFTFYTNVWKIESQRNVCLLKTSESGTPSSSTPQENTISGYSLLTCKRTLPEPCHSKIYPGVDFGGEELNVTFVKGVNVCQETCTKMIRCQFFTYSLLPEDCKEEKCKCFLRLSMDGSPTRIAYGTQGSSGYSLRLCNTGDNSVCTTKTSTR
Chain of Plasma kallikrein (P03952 391-638 limits assumed): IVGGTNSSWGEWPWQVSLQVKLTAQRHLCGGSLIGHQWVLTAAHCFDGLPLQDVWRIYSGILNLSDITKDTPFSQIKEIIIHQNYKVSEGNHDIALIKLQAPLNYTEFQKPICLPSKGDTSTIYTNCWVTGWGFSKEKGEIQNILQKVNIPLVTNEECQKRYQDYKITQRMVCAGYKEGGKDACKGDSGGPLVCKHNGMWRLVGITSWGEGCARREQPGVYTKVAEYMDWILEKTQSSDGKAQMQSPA

Structure (SMILES)	pIC50 (Coagulation factor X)	Ratio IC50 [1]	Ratio IC50 [2]	Ratio IC50 [3]	Activity (Plasma [4]) [%]	Ratio IC50 [5]	Ratio IC50 [6]	IC50 (Trypsin) [nM]	pIC50 [7]	IC50 (Chymotrypsin) [nM]	Ratio IC50 [8]	pIC50 (Plasma kallikrein)	Activity (Plasma [9])	EC1.5 (Plasma [9]) [µM]	pIC50 (Prothrombin)	Ratio IC50 [10]	pIC50 (Plasminogen)	pIC50 (Coagulation factor XII)	Activity (Plasma [11])	pIC50 (Coagulation factor XI)	other results
CCC(c1cc(-c2ccc(N)nc2)ccn1)n1cc(OC)c(-c2cc(Cl)ccc2-n2cnnn2)cc1=O (racemic)	< 6.00	> 1000	> 1000	> 1000	210.1	> 1000	> 1000	> 1000	< 6.00	> 1000	> 1000	7.09	Dose-dependent-effect	0.58	< 6.00	> 1000	< 6.00	< 6.00	inactive	9.43	solubility kinetic at 12 h (physchem): 108 µg/mL (≈ 210 µM); Activity (HK-2 [12]): Toxic
COc1cn(Cc2cc(-c3ccncc3)ccn2)c(=O)cc1-c1cc(Cl)ccc1-n1cnnn1	–	–	–	–	167.2	–	–	–	–	–	–	–	–	–	–	–	–	–	–	8.92	fraction unbound [13]: 0.159
CC[C@@H](c1cc(-c2ccc(N)nc2F)ccn1)n1cc(OC)c(-c2cc(Cl)ccc2-n2cnnn2)cc1=O	< 6.00	> 1000	> 1000	> 1000	335.4	> 1000	> 1000	> 1000	< 6.00	> 1000	> 1000	7.44	Dose-dependent-effect	0.34	< 6.00	> 1000	< 6.00	< 6.00	inactive	9.51	EC1.5 (Plasma [14]): 1.5 µM
CC[C@@H](C(=O)Nc1ccc(C(N)=O)c(F)c1)n1cc(OC)c(-c2cc(Cl)ccc2-n2cc(Cl)nn2)cc1=O	–	–	–	–	248.2	–	–	–	–	–	–	–	–	–	–	–	–	–	–	–	Activity (Mus musculus [15]): Active; Outperformed Asundexian And Compound F; EC1.5 (Plasma [14]): 2.7 µM; Activity (Mus musculus [16]): Active
CC[C@@H](c1cc(-c2ccc(N)nc2)ccn1)n1cc(OC)c(-c2cc(Cl)ccc2-n2cnnn2)cc1=O	< 6.00	> 1000	> 1000	> 1000	368.3	> 1000	> 1000	> 1000	< 6.00	> 1000	> 1000	7.43	Dose-dependent-effect	0.29	< 6.00	> 1000	< 6.00	< 6.00	inactive	9.89	EC1.5 (Plasma [14]): 1.8 µM; Activity (HK-2 [17]): Toxic
CCC(c1cccc(-c2ccc(N)nc2)c1)n1cc(OC)c(-c2cc(Cl)ccc2-n2cnnn2)cc1=O (configuration not stated)	–	–	–	–	45.7	–	–	–	–	–	–	–	–	–	–	–	–	–	–	9.62	fraction unbound [13]: 0.004
COc1cn(Cc2cccc(-c3ccncc3)c2)c(=O)cc1-c1cc(Cl)ccc1-n1cnnn1	–	–	–	–	122.1	–	–	–	–	–	–	–	–	–	–	–	–	–	–	9.30	fraction unbound [13]: 0.027
COc1cn(Cc2cc(-c3ccc(N)nc3)ccn2)c(=O)cc1-c1cc(Cl)ccc1-n1cnnn1	< 6.00	> 1000	> 1000	> 1000	193.8	> 1000	> 1000	> 1000	< 6.00	> 1000	> 1000	7.01	Dose-dependent-effect	0.57	< 6.00	> 1000	< 6.00	< 6.00	inactive	9.72	half-life [18]: > 3 h; Papp [19]: 0.13 ×10⁻⁶ cm/s; Activity (HepG2): Non-toxic; solubility kinetic at 12 h (physchem): 193 µg/mL (≈ 396 µM); Activity [20]: Non-toxic; Activity (HK-2 [21]): Non-toxic
CC[C@@H](C(=O)Nc1ccc(C(N)=O)c(F)c1)n1cc(OC)c(-c2cc(Cl)ccc2-n2cc(C(F)(F)F)nn2)cc1=O	< 6.00	–	–	–	250.8	–	–	> 1000	< 6.00	> 1000	–	–	Dose-dependent-effect	0.42	< 6.00	–	< 6.00	< 6.00	–	–	Activity (HepG2): Non-toxic; EC1.5 (Plasma [14]): >=9.3 uM and >12.5 uM; Activity [20]: Non-toxic; Activity [22]: Non-toxic; Activity (HK-2 [21]): Non-toxic
O=C(NC[C@H]1CN(c2ccc(N3CCOCC3=O)cc2)C(=O)O1)c1ccc(Cl)s1 [RIVAROXABAN]	–	–	–	–	–	–	–	–	–	–	–	–	–	–	–	–	–	–	–	–	Activity (HepG2): Non-toxic; Activity [20]: Non-toxic; Activity [23]: Toxic; Activity (HK-2 [21]): Non-toxic; Activity [24]: Toxic
CC[C@H](c1cc(-c2ccc(N)nc2)ccn1)n1cc(OC)c(-c2cc(Cl)ccc2-n2cnnn2)cc1=O	–	–	–	–	59.6	–	–	–	–	–	–	–	–	–	–	–	–	–	–	7.97	Activity (HK-2 [17]): Toxic

— ChEMBL document CHEMBL6109084 (Eur J Med Chem, 2025)
